The results in this text go back to a melting point compilation (Tetko et al.; mined from patent text by program, amines drawn as free bases though some values may be those of a salt).

Where only a bound is given, the exact number is not on record here.

Broadly, the melting point is the temperature of the solid-liquid transition.

Compound `CCCC1(C)C(=O)NC(=O)N1c1ccc(C)cc1` (stereo unspecified) showed a melting point of 158 °C.

`CN(c1cc(OC(F)(F)F)cc2cc(C3=NCC(CN4CCOCC4)S3)[nH]c12)S(=O)(=O)c1cccs1` (stereo unspecified) displayed a melting point of 165 to 166 °C.

`N#CC1=C(C2CCN(C(=N)N)CC2)Nc2n[nH]cc2C1c1cccc2nonc12` (stereo unspecified) returned a melting point of over 270 °C.

As to `COc1ccc(C(=O)O)cc1C#CCN(C)C`, the melting point fell in the range of 167 to 170 °C.

As to `N#CC1(c2ccc(F)cc2)C=CC(N2CCN(c3cccnn3)CC2)CC1` (stereo unspecified), the melting point was found to be 189 °C.

The compound `CN1CCN(CC/C=C/c2cc3ncc(C#N)c(Nc4ccc(Sc5nccn5C)c(Cl)c4)c3cc2F)CC1` displayed a melting point of 188 to 194 °C.

`CCOC(=O)C1CC2=C(CO1)C(=O)C(Cl)=CC2=O` (stereo unspecified) yielded a melting point of 83.5 °C.

As for `CC(=O)c1cccc(-c2nc3sccn3c2-c2ccnc(N[C@@H]3CCCN(S(=O)(=O)c4ccc(Cl)cc4)C3)n2)c1`, the melting point lay in the range of 124 to 127 °C.

Take `C[Si](C)(C)CC(CN)CC(=O)O` (stereo unspecified): the melting point was in the range of 167 to 168 °C.

In the case of `CN1C(=O)CC[C@]2(C)c3ccc(Sc4nc5c(OC(F)(F)F)cccc5s4)cc3CC[C@@H]12`, the melting point lay in the range of 168 to 173 °C.

`Cc1[nH]cnc1/C=C1\CCc2c(c3ccc(F)cc3n2C)C1=O` returned a melting point of 290 to 295 °C.

Take `CCCC(=O)c1c[nH]c2ccsc2c1=O`: the melting point was in the range of 244 to 247 °C.

For `COc1ccc(-c2cc(C(F)(F)F)nn2-c2ccc(S(N)(=O)=O)c(F)c2)cc1`, the melting point fell in the range of 130 to 131 °C.

For `CCCNc1nc(N)nc(C)c1/C=C/C(C)(C)c1ccc(C(F)(F)F)cc1`, the melting point lay in the range of 140 to 141 °C.

As to `CCC1CC(=O)C=C2CCC3C4CCC(=O)C4(C)CCC3C21C` (stereo unspecified), the melting point stood at 168 °C.

Turning to `CN1C(C)(C)CC(NC(=O)c2ccc(-c3nc4ccc(Cl)cc4[nH]3)cc2)CC1(C)C`, the melting point was over 250 °C.

In the case of `Cc1c(C(=O)N[C@H](C)[C@](O)(Cn2cncn2)c2ccc(F)cc2F)cnn1-c1ccccc1Cl`, the melting point lay within 232 to 233 °C.

`C=C(C)C[C@@H]1C(=O)N(c2ccc(C#N)c(Cl)c2)[C@@H](C)[C@H]1O` yielded a melting point of 110 to 112 °C.

As for `O=C(ONC1CCCCC1)c1n[nH]c2c(=O)[nH]c3cc(Cl)ccc3c(=O)c12`, the melting point is 220 °C.

The compound `CCCCCCC[C@H](CC(=O)OC(C)(C)C)C(=O)N1C(=O)OC[C@@H]1C(C)C` yielded a melting point of 49 to 51 °C.

`Cc1noc(NS(=O)(=O)c2ccccc2-c2ccc(CC(C)C)cc2NC=O)c1C`: the melting point lay within 87 to 95 °C.

For the compound `CCN(CC)CCC(=O)OCC1CC(c2ccc(-c3ccc(N4CC(Cn5ccnn5)OC4=O)cc3F)cn2)=NO1` (stereo unspecified), the melting point was 167 °C.

In turn, `CCN(CC)CCn1c2ccccc2c(=NN=C2SCCN2C)c2ccccc21` registered a melting point of 123 to 125 °C.

The compound `COC(=O)C=CC=CCSc1ccc(N(C)C)cc1` displayed a melting point of 68 to 70 °C.

`CCC(CC)C(=C(C#N)c1nc[nH]n1)S(=O)(=O)c1ccc(C)cc1` displayed a melting point of 78 to 87 °C.

Regarding `CCCCc1ncc(CO)c(NCc2ccc(-c3ccccc3)c(-c3nnnn3C(c3ccccc3)(c3ccccc3)c3ccccc3)c2)n1`, the melting point lay within 126 to 129 °C.

For the compound `CNS(=O)(=O)c1cc(-c2ccc(C(F)(F)F)n(C)c2=O)c(F)cc1Cl`, the melting point was 150 to 151 °C.

Consider `CSc1ccc(CCCOCCCCCCNCC(O)c2ccc(O)c(F)c2)cc1` (stereo unspecified), for which the melting point lay within 66 to 67 °C.

`CCCCCc1cnc(-c2ccc(C#N)cc2)nc1` displayed a melting point of 69.4 to 70.8 °C.

`CCCn1nc2c(N)nc3ccccc3c2c1CC(C)(C)NC(C)=O`: the melting point was in the range of 182 to 183 °C.

Consider `COC(=O)c1cccc(/C=C/c2cccc(OC)c2)c1`, for which the melting point lay within 92 to 94 °C.

As for `CN1Cc2c(-c3cccs3)ncn2-c2cccc(Cl)c2C1=O`, the melting point was in the range of 222 to 223 °C.

Consider `C[C@H]1c2cc(F)ccc2-c2ccccc2N1S(=O)(=O)c1ccc(OS(N)(=O)=O)cc1`, for which the melting point lay within 166 to 167 °C.

Compound `COc1ccc(C=Cc2nnc(CCl)o2)cc1` gave a melting point of 139 to 141 °C.

`CCCc1cnc(N2CCC(c3ccc(COc4ccc(C#N)c(F)c4)nc3)CC2)nc1` yielded a melting point of 118 to 120 °C.

As to `O=C1c2c(c(=O)n3nc(-c4ccccc4)cc3n2Cc2ccccc2)CN1c1ccccc1`, the melting point fell in the range of 271 to 272 °C.

As for `NCCCP(=O)(O)C(F)F`, the melting point was 261 °C.

As to `Cc1c(C)c2ccc(OCCCN3CCC(=NO)CC3)cc2oc1=O`, the melting point was in the range of 198 to 200 °C.

Compound `CCOC(=O)Cc1nn(Cc2nc3cc(C(F)(F)F)ccc3s2)c(=O)c2ccccc12` returned a melting point of 131 to 132 °C.

`CC1(C)SC(=O)N(Cc2ccccc2[N+](=O)[O-])C1O` (stereo unspecified) yielded a melting point of 139 to 143 °C.

As for `CCC1c2ccc(F)n2-c2ccc(Br)cc2N1S(=O)(=O)c1ccc(O)cc1` (stereo unspecified), the melting point fell in the range of 160 to 162 °C.

For the compound `Cc1onc(-c2ccc(-c3cscn3)cc2)c1-c1ccc(S(N)(=O)=O)c(F)c1`, the melting point was found to be 216 °C.

In turn, `O=C(Nc1cccc(CC(=O)OCc2ccccc2)c1)NC1C(=O)N(CC(=O)N2CCCC2)c2ccccc2N(c2ccccc2F)C1=O` (stereo unspecified) displayed a melting point of 104 to 106 °C.

As for `CCCN(CCC)[C@H]1Cc2c[nH]c3ccc(-c4nc(-c5ccccc5)no4)c(c23)C1`, the melting point was in the range of 154 to 155 °C.

`O=C1CCCC(c2ccccc2)N1c1ccccc1` (stereo unspecified): the melting point is 123 to 125 °C.

`CN(c1cccc2cc(C3=NCC(C)(CN4CCC5(CC4)OCCO5)S3)[nH]c12)S(=O)(=O)c1cccs1` (stereo unspecified) displayed a melting point of 172 to 173 °C.

Compound `COc1cc([N+](=O)[O-])ccc1S(=O)(=O)n1c(=O)n(C2CCCCCC2)c2cc(Cl)ccc21` returned a melting point of 193 °C.

Take `CCCc1c(O[C@@H]2CCC[C@H](Sc3ccc(C(=O)CCC(=O)O)cc3)C2)ccc(C(C)=O)c1O` (relative stereo): the melting point lay within 101 to 103 °C.

Regarding `COC(=O)c1ccccc1-c1nc2cc(C)ccc2o1`, the melting point was 135 to 138 °C.

In turn, `Cc1c(N)cc2c(c1C)OC(C)(C)C2=O` gave a melting point of 149 to 150 °C.

The compound `c1ccc(C2=NOC3(CCNCC3)C2)cc1` showed a melting point of 115 °C.

For `CCCCCCCCCC(C)(C)c1cc(C(=O)Nc2ccc(C(=O)O)cc2)ccc1OC`, the melting point amounted to 177 °C.

On to `COCc1c(C(=O)OC(C)C)ncc2[nH]c3cccc(Oc4ccccc4)c3c12`, for which the melting point was 201 to 203 °C.

As to `N#CC1=C(c2ccccc2)Nc2ccccc2S1=O` (stereo unspecified), the melting point fell in the range of 182 to 184 °C.

With `CC(C)(C)C(CSC(F)F)=NO`, the melting point lay in the range of 92 to 95 °C.

With `Cc1ccc(-n2nc(C(F)F)cc2-c2ccc(S(C)(=O)=O)cc2)cc1Br`, the melting point lay in the range of 136 to 138 °C.

As for `O=c1[nH]c2c(Cl)ccc(Cl)c2c(=O)n1CCCN1CC=C(c2ccc(Cl)cc2)CC1`, the melting point is 207 to 209 °C.

As to `CCOCc1nc2c(N)nc3cccnc3c2n1CC1(O)CCCC1`, the melting point was 165 to 166 °C.

As for `Cc1c(Cl)cc(C(=O)C(O)CC(=O)O)cc1Cl` (stereo unspecified), the melting point was 114 to 118 °C.

`CS(=O)(=O)Nc1cc2c(cc1Oc1ccccc1)C(=O)C(Sc1ccccc1)(Sc1ccccc1)C2` had a melting point of 162 °C.

Take `O=c1c(-c2ccccc2)c(SCc2ccccc2)oc2cc(O)ccc12`: the melting point was 215 to 217 °C.

`CCOC(=O)C1CCN(c2nc(-c3ccc(Cl)cc3)c(CCCOc3ccccc3OC)o2)CC1` showed a melting point of 80 to 81 °C.

Consider `COc1ncccc1Oc1cc(-n2c(=O)cc(C(F)(F)F)n(C)c2=O)c(F)cc1Cl`, for which the melting point came to 180 °C.

Compound `CCN(CC)C(=O)c1ccc2ccccc2c1-c1ccc(OC)cc1` had a melting point of 114 to 116 °C.

Take `CCc1cc(Nc2nc(Nc3cc(CC)n[nH]3)c3ccccc3n2)[nH]n1`: the melting point fell in the range of 248 to 252 °C.

With `CCOC(=O)c1cn(CC)c2c(F)c(C(C)=O)c(F)cc2c1=O`, the melting point was in the range of 129 to 130 °C.

In the case of `COc1ccc(CNS(=O)(=O)Cc2ccc3[nH]cc(CCN(C)C)c3c2)cc1`, the melting point was 200 to 201 °C.

`NC(=S)NCCC(O)(c1ccc(F)cc1)c1ccccn1` (stereo unspecified) registered a melting point of 148 to 149 °C.

`CC(C)OC(=O)N1CC(=O)Nc2ccc(-c3cccc(Cl)c3)cc21` came in with a melting point of 174 to 176 °C.

`CC(C)(C)C(=O)Nc1c(F)cc(F)cc1Oc1ccc(C2CC(=O)NC(=O)C2)cc1` showed a melting point of 172 °C.

Compound `Cc1cc(C)cc(Sc2c(C(C)C)c(=O)[nH]c(=O)n2CC2=CCCC2CO)c1` (stereo unspecified) gave a melting point of 66 to 68 °C.

In turn, `CCCN(c1ccccc1)S(=O)(=O)c1ccc(C(CC2CCCC2)C(=O)Nc2nc3ccc(OC)nc3s2)cc1` (stereo unspecified) gave a melting point of 83 to 85 °C.

In turn, `Cc1cccc2nc(-c3ccccc3)n(C3CCC(=O)NC3=O)c(=O)c12` (stereo unspecified) gave a melting point of 298 to 300 °C.

For the compound `FC(F)(F)c1ccccc1CC[C@H]1CNCCN1`, the melting point lay in the range of 43 to 47 °C.

As to `COc1cc(OC)nc(Oc2ccc3[nH]c(C)c(NC(C)=O)c3c2C(=O)O)n1`, the melting point was 230 to 233 °C.

Take `CCCCCOc1ccc(-c2ncc(C#N)cn2)cc1`: the melting point was in the range of 98 to 98.1 °C.

Compound `CCCN(CCC)C(=O)c1cc2ccccc2c(-c2ccccc2Cl)n1` had a melting point of 101 °C.

Compound `COc1ccc(Cl)cc1C(=O)NCCc1ccc(CCC(=O)O)cc1` displayed a melting point of 118 to 120 °C.

Consider `COc1ccc(Cn2c(N)c(NC(=O)C(C)C)c(=O)[nH]c2=S)cc1OCc1ccccc1`, for which the melting point lay in the range of 240 to 244 °C.

`Cc1oc(-c2ccccc2)nc1C(=O)COc1ccc(CCC2OCCO2)cc1`: the melting point was 119 to 120 °C.

`CCC(CC)(CC(=O)Nc1cccc(/C=C/c2cccc(CCCCCCc3ccc(OCCC(C)C)cc3)n2)c1)C(=O)O` gave a melting point of 136 to 137 °C.

Take `COc1ccc2[nH]cc(CCC(=O)O)c2c1`: the melting point came out at 80 °C.

Turning to `CCCc1cc(=O)oc2cc(O)ccc12`, the melting point fell in the range of 135 to 137 °C.

Compound `CS(=O)(=O)c1ccc(-c2n[nH]c(=O)cc2-c2ccc(Cl)cc2)cc1` had a melting point of 254 to 255 °C.

Compound `Clc1ccc(C2CCc3ccccc3O2)cc1` (stereo unspecified) yielded a melting point of 76 to 77 °C.

`CC(C)c1sc2ncnc(N)c2c1-c1ccc(NC(=O)c2ccccc2)cc1` showed a melting point of over 250 °C.
